This is an account of results in US8889670B2, “Heterocyclic compounds which modulate the CB2 receptor” (Boehringer Ingelheim International GmbH, priority 2009, dated 2014).

For the first experiment, the target named is T1, human CB2R (Homo sapiens, UniProt P34972).
T1 construct: host or cells: CHO cells
T1 sequence (P34972 whole entry): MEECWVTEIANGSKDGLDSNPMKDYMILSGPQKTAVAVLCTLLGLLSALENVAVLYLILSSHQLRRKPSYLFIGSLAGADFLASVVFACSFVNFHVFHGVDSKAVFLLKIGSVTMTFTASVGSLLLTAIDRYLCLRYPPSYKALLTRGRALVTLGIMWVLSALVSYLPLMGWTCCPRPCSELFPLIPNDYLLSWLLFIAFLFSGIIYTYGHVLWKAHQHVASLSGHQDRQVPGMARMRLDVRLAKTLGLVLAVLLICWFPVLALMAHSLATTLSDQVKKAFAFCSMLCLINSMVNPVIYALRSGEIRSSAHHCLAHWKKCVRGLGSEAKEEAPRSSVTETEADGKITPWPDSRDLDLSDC
The experiment is described as follows: CB2R mediated modulation of cAMP synthesis (forskolin-stimulated cAMP, CHO cells expressing human CB2R). In kind it is cell-based.
Settings: not given
On the procedure: B. CB2R Mediated Modulation of cAMP Synthesis:
Compounds of the invention were evaluated for their CB2 agonist or inverse agonistic activity in accordance with the following experimental method.
CHO cells expressing human CB2R (Euroscreen) were plated at a density of 5000 cells per well in 384 well plates and incubated overnight at 37° C. After removing the media, the cells were treated with test compounds diluted in stimulation buffer containing 1 mM IBMX, 0.25% BSA and 10 uM Forskolin. The assay was incubated for 30 minutes at 37° C. Cells were lysed and the cAMP concentration was measured using DiscoverX-XS cAMP kit, following the manufacturer's protocol. In this setting, agonists will decrease forskolin induced production of cAMP while inverse agonists will further increase forskolin induced production of cAMP. EC50 of agonists were calculated as follows. The maximal amount of cAMP produced by forskolin compared to the level of cAMP inhibited by 1 uM CP55940 is defined as 100%. […] Data was analyzed using a four-parameter logistic model. (Model 205 of XLfit 4.0).
In the case of `O=C(Nc1nc2cc(Cl)ccc2s1)[C@@H]1CCCCN1CC1CCOCC1` [(S)-1-(Tetrahydro-pyran-4-ylmethyl)-piperidine-2-carboxylic acid (5-chloro-benzothiazol-2-yl)-amide], the response was half-maximal at 0.2 nM (EC50).
Same read-out and setting: as for `COc1ccc(S(=O)(=O)N2CCCC[C@H]2C(=O)Nc2cc(C(C)(C)C)on2)cc1` [(S)-1-(4-Methoxy-benzenesulfonyl)-piperidine-2-carboxylic acid (5-tert-butyl-isoxazol-3-yl)-amide], the figure is 27 nM; as for `CC(C)(C)c1cc(NC(=O)C2CN(C(=O)c3ccc(C(F)(F)F)cc3)CCO2)no1` (stereo not shown) [4-(4-Trifluoromethyl-benzoyl)-morpholine-2-carboxylic acid (5-tert-butyl-isoxazol-3-yl)-amide], 85 nM; as for `CC(C)(C)c1csc(NC(=O)[C@@H]2CCCCN2CC2CCOCC2)n1` [(S)-1-(Tetrahydro-pyran-4-ylmethyl)-piperidine-2-carboxylic acid (4-tert-butyl-thiazol-2-yl)-amide], 13 nM.
Regarding `CC(C)(C)c1cc(NC(=O)[C@@H]2C[C@@H](O)CCN2c2ncc(C(F)(F)F)cc2Cl)no1` [(2S,4S)-3′-Chloro-4-hydroxy-5′-trifluoromethyl-3,4,5,6-tetrahydro-2H-[1,2′]bipyridinyl-2-carboxylic acid (5-tert-butyl-isoxazol-3-yl)-amide], a half-maximal response (EC50) required 0.3 nM.
Take `CC(C)(C)c1cc(NC(=O)[C@@H]2CCCCCN2C2CCOCC2)no1` [(S)-1-(Tetrahydro-pyran-4-yl)-azepane-2-carboxylic acid (5-tert-butyl-isoxazol-3-yl)-amide]: the EC50 worked out at 0.18 nM.
Still for that read-out and setting: under `CC(C)(C)c1cc(NC(=O)[C@@H]2CCCCN2c2ncc(C(F)(F)F)cc2Cl)no1` [(S)-3′-Chloro-5′-trifluoromethyl-3,4,5,6-tetrahydro-2H-[1,2′]bipyridinyl-2-carboxylic acid (5-tert-butyl-isoxazol-3-yl)-amide] stands 0.18 nM.
On the same count and under the same terms, as for `O=C(Nc1nc(-c2ccc(F)cc2F)cs1)[C@@H]1CCCCN1C(=O)N1CCS(=O)(=O)CC1` [(S)-1-(1,1-Dioxo-1λ^6-thiomorpholine-4-carbonyl)-piperidine-2-carboxylic acid [4-(2,4-difluoro-phenyl)-thiazol-2-yl]-amide], the figure is 22 nM; as for `CC(C)(C)c1cc(NC(=O)[C@@H]2CCCCN2C(=O)c2ccc(F)cc2)no1` [(S)-1-(4-Fluoro-benzoyl)-piperidine-2-carboxylic acid (5-tert-butyl-isoxazol-3-yl)-amide], 2.2 nM; as for `CC(C)(C)c1cc(NC(=O)[C@H]2CCCN(C(=O)C3CCC(F)(F)CC3)C2)no1` [(S)-1-(4,4-Difluoro-cyclohexanecarbonyl)-piperidine-3-carboxylic acid (5-tert-butyl-isoxazol-3-yl)-amide], 119 nM.
As for `CC(C)(C)c1cc(NC(=O)[C@@H]2CCCN(C(=O)C3CCC(F)(F)CC3)C2)no1` [(R)-1-(4,4-Difluoro-cyclohexanecarbonyl)-piperidine-3-carboxylic acid (5-tert-butyl-isoxazol-3-yl)-amide], the EC50 came to 42 nM.
The same measure, in the same setting: under `O=C(Nc1nc2cc(F)ccc2s1)[C@@H]1CCCCN1C(=O)N1CCS(=O)(=O)CC1` [(S)-1-(1,1-Dioxo-1λ^6-thiomorpholine-4-carbonyl)-piperidine-2-carboxylic acid (5-fluoro-benzothiazol-2-yl)-amide] stands 56 nM.

Staying with this experiment, now noted: agonist EC50, inhibition of forskolin-stimulated cAMP synthesis; CHO cells expressing human CB2R; mean; read-out: CB2 CAMP @ EC50 nM (mean).
Take `CC(C)(C)c1nnc(NC(=O)[C@@H]2CCCCN2C2CC2)s1` [(S)-1-Cyclopropyl-piperidine-2-carboxylic acid (5-tert-butyl-1,3,4-thiadiazol-2-yl)-amide]: the EC50 came out at 485 nM.
On the same count and under the same terms, under `O=C(Nc1nc(C2CCCCC2)cs1)[C@@H]1CCCCN1CC1CCOCC1` [(S)-1-(Tetrahydro-pyran-4-ylmethyl)-piperidine-2-carboxylic acid (4-cyclohexyl-thiazol-2-yl)-amide] stands 9 nM; under `CC(C)(C)c1cc(NC(=O)C2CCCN(C(=O)C3CCOCC3)C2)no1` (stereo not shown) [1-(Tetrahydro-pyran-4-carbonyl)-piperidine-3-carboxylic acid (5-tert-butyl-isoxazol-3-yl)-amide], 205 nM; under `O=C(Nc1nc2ccc(Cl)cc2s1)[C@@H]1CCCCN1CC1CCOCC1` [(S)-1-(Tetrahydro-pyran-4-ylmethyl)-piperidine-2-carboxylic acid (6-chloro-benzothiazol-2-yl)-amide], 131 nM.
As to `CC(C)c1nsc(NC(=O)[C@@H]2CCCCN2CC2CCOCC2)n1` [(S)-1-(Tetrahydro-pyran-4-ylmethyl)-piperidine-2-carboxylic acid (3-isopropyl-1,2,4-thiadiazol-5-yl)-amide], the EC50 was 208 nM.
Still for that read-out and setting: as for `CCn1nc(NC(=O)[C@@H]2CCCCN2C(=O)N2CCS(=O)(=O)CC2)nc1-c1ccccc1` [(S)-1-(1,1-Dioxo-1λ^6-thiomorpholine-4-carbonyl)-piperidine-2-carboxylic acid (1-ethyl-5-phenyl-1H-1,2,4-triazol-3-yl)-amide], the figure is 135 nM.
The same measure, in the same setting: under `CC(C)(C)c1cc(NC(=O)C2CCCCN2C(=O)c2ccc(C(F)(F)F)cc2)no1` (stereo not shown) [1-(4-Trifluoromethyl-benzoyl)-piperidine-2-carboxylic acid (5-tert-butyl-isoxazol-3-yl)-amide] stands 395 nM; under `CC(C)(C)c1cc(NC(=O)C2CCCN(C(=O)N3CCS(=O)(=O)CC3)C2)no1` (stereo not shown) [1-(1,1-Dioxo-1λ6-thiomorpholine-4-carbonyl)-piperidine-3-carboxylic acid (5-tert-butyl-isoxazol-3-yl)-amide], 215 nM; under `CC(C)(C)c1cc(NC(=O)[C@@H]2CCCCN2C(=O)CN2CCOCC2)no1` [(S)-1-(2-Morpholin-4-yl-acetyl)-piperidine-2-carboxylic acid (5-tert-butyl-isoxazol-3-yl)-amide], 188 nM.
The same measure, in the same setting: as for `CCn1nc(NC(=O)[C@@H]2CCCCN2C(=O)CC2CCS(=O)(=O)C2)nc1-c1ccccc1` (stereo partly drawn) [(S)-1-[2-(1,1-Dioxo-tetrahydro-1λ^6-thiophen-3-yl)-acetyl]-piperidine-2-carboxylic acid (1-ethyl-5-phenyl-1H-1,2,4-triazol-3-yl)-amide], the figure is 365 nM.

A word on the EC50: it is the concentration giving half of the maximal effect.
